Measured values taken from the Kinase Knowledgebase extract (Sharma et al. 2016).

Tests used:
PIK3CA (human) = PIK3CA (human) (UniProt P42336); experiment: Assessment of PIK3CA Kinase Activity
PIK3CB (Human) = PIK3CB (Human) (UniProt P42338); experiment: Assessment of PIK3CB Kinase Activity
PIK3CD (Human) = PIK3CD (Human) (UniProt O00329); experiment: Assessment of PIK3CD Kinase Activity
PIK3CG (human) = PIK3CG (human) (UniProt P48736); experiment: Assessment of PIK3CG Kinase Activity
Chain of PIK3CG (human) (P48736 whole entry, looked up): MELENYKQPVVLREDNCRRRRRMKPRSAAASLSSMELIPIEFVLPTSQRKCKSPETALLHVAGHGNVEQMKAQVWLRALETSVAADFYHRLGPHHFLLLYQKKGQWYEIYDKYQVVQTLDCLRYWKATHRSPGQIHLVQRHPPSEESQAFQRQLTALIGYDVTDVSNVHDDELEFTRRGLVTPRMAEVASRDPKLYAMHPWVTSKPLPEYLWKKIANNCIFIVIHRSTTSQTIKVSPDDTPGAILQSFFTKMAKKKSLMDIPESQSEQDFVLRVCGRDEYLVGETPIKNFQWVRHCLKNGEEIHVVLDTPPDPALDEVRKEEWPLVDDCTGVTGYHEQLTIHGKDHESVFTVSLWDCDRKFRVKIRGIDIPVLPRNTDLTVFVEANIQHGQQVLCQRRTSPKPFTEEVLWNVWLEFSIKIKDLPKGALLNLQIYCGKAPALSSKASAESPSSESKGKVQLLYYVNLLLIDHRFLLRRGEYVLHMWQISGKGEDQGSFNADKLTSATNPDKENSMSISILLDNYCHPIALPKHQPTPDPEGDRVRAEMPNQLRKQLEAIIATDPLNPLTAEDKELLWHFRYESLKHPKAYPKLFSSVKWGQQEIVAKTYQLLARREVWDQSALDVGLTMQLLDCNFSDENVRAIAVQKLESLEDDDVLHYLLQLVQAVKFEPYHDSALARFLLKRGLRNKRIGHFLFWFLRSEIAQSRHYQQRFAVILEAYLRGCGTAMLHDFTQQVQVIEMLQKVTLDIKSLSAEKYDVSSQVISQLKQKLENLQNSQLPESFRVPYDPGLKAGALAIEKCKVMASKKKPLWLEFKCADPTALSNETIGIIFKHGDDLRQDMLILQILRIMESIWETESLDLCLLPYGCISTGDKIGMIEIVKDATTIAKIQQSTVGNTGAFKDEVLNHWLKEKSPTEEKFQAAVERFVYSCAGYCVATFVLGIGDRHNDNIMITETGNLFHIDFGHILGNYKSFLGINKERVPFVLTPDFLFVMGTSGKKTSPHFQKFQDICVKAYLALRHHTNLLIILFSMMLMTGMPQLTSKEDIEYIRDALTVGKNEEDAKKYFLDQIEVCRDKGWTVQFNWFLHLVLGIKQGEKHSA

Chain of PIK3CA (human) (P42336 whole entry, looked up): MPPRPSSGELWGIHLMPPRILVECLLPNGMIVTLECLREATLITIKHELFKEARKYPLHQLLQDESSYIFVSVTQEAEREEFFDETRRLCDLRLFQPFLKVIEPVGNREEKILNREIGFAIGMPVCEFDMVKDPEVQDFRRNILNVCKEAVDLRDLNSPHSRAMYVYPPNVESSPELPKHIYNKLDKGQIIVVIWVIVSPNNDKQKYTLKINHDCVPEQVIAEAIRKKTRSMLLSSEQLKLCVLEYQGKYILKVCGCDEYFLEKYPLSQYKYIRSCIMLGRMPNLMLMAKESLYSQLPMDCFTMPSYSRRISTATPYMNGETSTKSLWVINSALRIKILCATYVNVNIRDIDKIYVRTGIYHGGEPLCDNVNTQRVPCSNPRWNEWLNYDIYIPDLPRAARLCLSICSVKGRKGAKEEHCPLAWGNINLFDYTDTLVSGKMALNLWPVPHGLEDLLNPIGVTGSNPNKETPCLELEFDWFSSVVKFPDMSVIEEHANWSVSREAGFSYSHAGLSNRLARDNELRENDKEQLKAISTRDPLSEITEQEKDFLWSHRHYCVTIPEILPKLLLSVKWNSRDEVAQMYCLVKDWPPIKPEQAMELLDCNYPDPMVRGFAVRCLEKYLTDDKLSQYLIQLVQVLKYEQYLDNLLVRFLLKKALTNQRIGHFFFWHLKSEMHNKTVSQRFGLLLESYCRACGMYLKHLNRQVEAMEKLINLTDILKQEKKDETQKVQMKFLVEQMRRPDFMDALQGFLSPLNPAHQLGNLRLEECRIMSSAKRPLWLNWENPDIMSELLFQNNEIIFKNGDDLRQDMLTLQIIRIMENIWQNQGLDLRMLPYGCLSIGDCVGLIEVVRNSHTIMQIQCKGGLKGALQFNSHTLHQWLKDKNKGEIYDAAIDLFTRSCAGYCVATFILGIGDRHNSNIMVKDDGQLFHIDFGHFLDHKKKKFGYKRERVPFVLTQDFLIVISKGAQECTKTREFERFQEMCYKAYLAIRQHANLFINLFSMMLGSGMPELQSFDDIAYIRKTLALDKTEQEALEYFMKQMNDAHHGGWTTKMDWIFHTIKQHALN
Chain of PIK3CD (Human) (O00329 whole entry, looked up): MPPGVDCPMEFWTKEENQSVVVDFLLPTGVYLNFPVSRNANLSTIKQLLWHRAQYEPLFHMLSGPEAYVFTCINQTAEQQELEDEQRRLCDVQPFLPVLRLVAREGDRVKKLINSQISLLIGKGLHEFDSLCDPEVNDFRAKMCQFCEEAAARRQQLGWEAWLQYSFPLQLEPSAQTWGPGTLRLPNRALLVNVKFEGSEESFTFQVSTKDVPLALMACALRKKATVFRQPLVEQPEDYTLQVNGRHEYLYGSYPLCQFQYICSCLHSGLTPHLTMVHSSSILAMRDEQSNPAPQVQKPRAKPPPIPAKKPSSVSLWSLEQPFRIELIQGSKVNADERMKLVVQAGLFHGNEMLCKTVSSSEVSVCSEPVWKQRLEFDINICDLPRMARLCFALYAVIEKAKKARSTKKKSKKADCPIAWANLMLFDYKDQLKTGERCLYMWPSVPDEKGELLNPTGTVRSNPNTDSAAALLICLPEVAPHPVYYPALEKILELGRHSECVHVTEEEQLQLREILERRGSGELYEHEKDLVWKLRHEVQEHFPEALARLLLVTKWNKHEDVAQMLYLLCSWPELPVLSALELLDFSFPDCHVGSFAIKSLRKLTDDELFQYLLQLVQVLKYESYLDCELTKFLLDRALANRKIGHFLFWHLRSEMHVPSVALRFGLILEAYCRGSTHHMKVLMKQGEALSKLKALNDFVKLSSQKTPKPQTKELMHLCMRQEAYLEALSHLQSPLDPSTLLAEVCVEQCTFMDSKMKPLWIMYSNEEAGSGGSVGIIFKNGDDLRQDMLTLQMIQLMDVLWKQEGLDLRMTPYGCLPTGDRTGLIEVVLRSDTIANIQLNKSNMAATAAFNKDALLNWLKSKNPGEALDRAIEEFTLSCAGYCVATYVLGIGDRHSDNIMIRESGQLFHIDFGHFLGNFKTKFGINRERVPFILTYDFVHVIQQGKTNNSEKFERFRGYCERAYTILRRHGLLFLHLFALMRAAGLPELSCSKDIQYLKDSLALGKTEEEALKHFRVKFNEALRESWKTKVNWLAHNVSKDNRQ
Chain of PIK3CB (Human) (P42338 whole entry, looked up): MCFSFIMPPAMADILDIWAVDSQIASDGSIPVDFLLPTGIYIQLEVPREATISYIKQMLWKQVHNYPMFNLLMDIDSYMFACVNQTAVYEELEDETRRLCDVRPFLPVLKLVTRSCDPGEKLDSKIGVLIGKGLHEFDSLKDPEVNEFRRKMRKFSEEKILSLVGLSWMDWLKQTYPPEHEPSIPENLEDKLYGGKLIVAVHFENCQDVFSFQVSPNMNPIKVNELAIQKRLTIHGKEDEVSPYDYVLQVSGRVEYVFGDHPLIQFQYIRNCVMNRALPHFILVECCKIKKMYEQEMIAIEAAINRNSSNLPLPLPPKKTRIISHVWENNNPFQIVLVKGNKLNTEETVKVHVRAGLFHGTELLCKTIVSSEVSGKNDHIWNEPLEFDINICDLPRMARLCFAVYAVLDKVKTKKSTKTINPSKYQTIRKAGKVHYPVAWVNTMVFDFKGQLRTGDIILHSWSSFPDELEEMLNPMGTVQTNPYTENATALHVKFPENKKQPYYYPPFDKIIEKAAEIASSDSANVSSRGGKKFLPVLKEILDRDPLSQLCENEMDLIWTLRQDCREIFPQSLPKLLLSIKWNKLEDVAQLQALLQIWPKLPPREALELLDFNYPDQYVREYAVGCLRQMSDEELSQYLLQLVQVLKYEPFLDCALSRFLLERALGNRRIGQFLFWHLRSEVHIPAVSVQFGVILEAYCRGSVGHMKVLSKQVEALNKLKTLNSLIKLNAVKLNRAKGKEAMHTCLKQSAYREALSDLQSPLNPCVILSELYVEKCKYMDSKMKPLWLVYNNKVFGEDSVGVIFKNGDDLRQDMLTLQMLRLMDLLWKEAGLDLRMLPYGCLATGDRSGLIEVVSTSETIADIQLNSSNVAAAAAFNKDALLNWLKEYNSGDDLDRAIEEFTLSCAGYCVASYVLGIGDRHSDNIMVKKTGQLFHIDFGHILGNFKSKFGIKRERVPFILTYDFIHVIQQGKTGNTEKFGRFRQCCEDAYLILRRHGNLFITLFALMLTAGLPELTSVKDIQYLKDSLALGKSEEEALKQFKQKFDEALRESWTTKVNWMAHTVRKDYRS

Row | IC50 (PIK3CA (human)) | Structure (SMILES) | also measured
1 | 100 to 1000 nM | CS(=O)(=O)N1CCN(Cc2cc3nc(-c4ccc(OCCCCCC(=O)NO)cc4)nc(N4CCOCC4)c3s2)CC1 | –
2 | < 100 nM | CN(Cc1cc2nc(-c3cccc4[nH]c(=O)sc34)nc(N3CCOCC3)c2s1)c1ncc(C(=O)NO)cn1 | –
3 | < 100 nM | COc1ccc(-c2nc(N3CCOCC3)c3sc(S(=O)(=O)Nc4ncc(C(=O)NO)cn4)cc3n2)cn1 | –
4 | < 100 nM | COc1ncc(-c2nc(N3CCOCC3)c3sc(C(C)N(C)c4ncc(C(=O)NO)cn4)cc3n2)cn1 (configuration not stated) | –
5 | < 100 nM | CN(Cc1cc2nc(-c3ccc(N)c([N+](=O)[O-])c3)nc(N3CCOCC3)c2s1)c1ncc(C(=O)NO)cn1 | –
6 | < 100 nM | Nc1ccc(-c2nc(N3CCOCC3)c3sc(S(=O)(=O)Nc4ncc(C(=O)NO)cn4)cc3n2)cc1 | –
7 | < 100 nM | COc1ccc(-c2nc(N3CCOCC3)c3sc(CN(CCO)c4ncc(C(=O)NO)cn4)cc3n2)cn1 | –
8 | < 100 nM | O=C(CCCCNc1cc2nc(-c3cc(O)ccc3F)nc(N3CCOCC3)c2s1)NO | –
9 | > 10000 nM | CS(=O)(=O)N1CCN(Cc2cc3nc(-c4cccc5c4cnn5CCCCCCC(=O)NO)nc(N4CCOCC4)c3s2)CC1 | –
10 | < 100 nM | COc1ncc(-c2nc(N3CCOCC3)c3sc(NS(=O)(=O)c4ccc(C=CC(=O)NO)cc4)cc3n2)cn1 | –
11 | > 10000 nM | CN1CCN(c2nc(-c3cccc4[nH]ncc34)nc3cc(CN(C)c4ncc(C(=O)NO)cn4)sc23)CC1 | –
12 | < 100 nM | COc1ncc(-c2nc(N3CCOCC3)c3sc(NS(=O)(=O)c4cccc(C=CC(=O)NO)c4)cc3n2)cn1 | –
13 | > 10000 nM | CN(Cc1cc2nc(-c3cccc(C(C)(C)O)c3)nc(N3CCOCC3)c2s1)c1ncc(C(=O)NO)cn1 | –
14 | < 100 nM | COc1ncc(-c2nc(N3CCOCC3)c3sc(C(C)(C)Nc4ncc(C(=O)NO)cn4)cc3n2)cn1 | –
15 | < 100 nM | CNc1ccc(-c2nc(N3CCOCC3)c3sc(CN(C)c4ncc(C(=O)NO)cn4)cc3n2)cn1 | IC50 (PIK3CB (Human)): 100 to 1000 nM; IC50 (PIK3CD (Human)): < 100 nM; IC50 (PIK3CG (human)): 100 to 1000 nM
16 | > 10000 nM | CN(Cc1cc2nc(-c3ccc(Cl)cc3)nc(N3CCOCC3)c2s1)c1ncc(C(=O)NO)cn1 | –
17 | 100 to 1000 nM | CN(Cc1cc2nc(-c3cnn(C)c3)nc(N3CCOCC3)c2s1)c1ncc(C(=O)NO)cn1 | –
18 | > 10000 nM | CN(Cc1cc2nc(-c3cccc(S(=O)(=O)CCO)c3)nc(N3CCOCC3)c2s1)c1ncc(C(=O)NO)cn1 | –
19 | 100 to 1000 nM | CN(Cc1cc2nc(-c3cccc4[nH]c(=O)[nH]c34)nc(N3CCOCC3)c2s1)c1ncc(C(=O)NO)cn1 | –
20 | < 100 nM | Nc1ncc(-c2nc(N3CCOCC3)c3sc(NCCCCCC(=O)NO)cc3n2)cn1 | –
21 | < 100 nM | Nc1ncc(-c2nc(N3CCOCC3)c3sc(NCCCCC(=O)NO)cc3n2)cn1 | –
22 | < 100 nM | CNc1ccc(-c2nc(N3CCOCC3)c3sc(C(C)N(C)c4ncc(C(=O)NO)cn4)cc3n2)cn1 (configuration not stated) | –
23 | < 100 nM | CNc1ccc(-c2nc(N3CCOCC3)c3sc(S(=O)(=O)NCC4CCN(c5ncc(C(=O)NO)cn5)CC4)cc3n2)cn1 | –
24 | < 100 nM | CN(Cc1cc2nc(-c3ccc(N)c(F)c3)nc(N3CCOCC3)c2s1)c1ncc(C(=O)NO)cn1 | –
25 | > 10000 nM | CCN(CC)c1ccc(-c2nc(N3CCOCC3)c3sc(CN(C)c4ncc(C(=O)NO)cn4)cc3n2)cc1 | –
26 | > 10000 nM | CN(Cc1cc2nc(-c3ccc(N4CCCC4)cc3)nc(N3CCOCC3)c2s1)c1ncc(C(=O)NO)cn1 | –
27 | > 10000 nM | CN(Cc1cc2nc(-c3cccc4[nH]ncc34)nc(N3CCN(CCO)CC3)c2s1)c1ncc(C(=O)NO)cn1 | –

Row | IC50 (PIK3CA (human)) | Structure (SMILES) | also measured
28 | > 10000 nM | CN(Cc1cc2nc(-c3ccc(C#N)cc3)nc(N3CCOCC3)c2s1)c1ncc(C(=O)NO)cn1 | –
29 | < 100 nM | COc1ccc(-c2nc(N3CCOCC3)c3sc(C(C)N(C)c4ncc(C(=O)NO)cn4)cc3n2)cn1 (configuration not stated) | –
30 | < 100 nM | Nc1ncc(-c2nc(N3CCOCC3)c3sc(NCCCCCCC(=O)NO)cc3n2)cn1 | –
31 | < 100 nM | CN(Cc1cc2nc(-c3ccc(N)cc3Cl)nc(N3CCOCC3)c2s1)c1ncc(C(=O)NO)cn1 | –
32 | < 100 nM | Nc1ccc(-c2nc(N3CCOCC3)c3sc(Nc4ncc(C(=O)NO)cn4)cc3n2)cc1 | –
33 | 100 to 1000 nM | CC(O)c1ccc(F)c(-c2nc(N3CCOCC3)c3sc(CN(C)c4ncc(C(=O)NO)cn4)cc3n2)c1 (configuration not stated) | –
34 | > 10000 nM | CCN(CC)c1nc(-c2cccc3[nH]ncc23)nc2cc(CN(C)c3ncc(C(=O)NO)cn3)sc12 | –
35 | > 10000 nM | COc1cccc(Nc2nc(-c3cccc4[nH]ncc34)nc3cc(CN(C)c4ncc(C(=O)NO)cn4)sc23)c1 | –
36 | 100 to 1000 nM | CC(=NO)c1ccc(F)c(-c2nc(N3CCOCC3)c3sc(CN(C)c4ncc(C(=O)NO)cn4)cc3n2)c1 | –
37 | 100 to 1000 nM | CC(=O)c1cccc(-c2nc(N3CCOCC3)c3sc(CN(C)c4ncc(C(=O)NO)cn4)cc3n2)c1 | –
38 | > 10000 nM | CC(=O)N1CCN(c2nc(-c3cccc4[nH]ncc34)nc3cc(CN(C)c4ncc(C(=O)NO)cn4)sc23)CC1 | –
39 | > 10000 nM | CS(=O)(=O)N1CCN(Cc2cc3nc(-c4cccc5[nH]ncc45)nc(N4CCN(CCCCCC(=O)NO)CC4)c3s2)CC1 | –
40 | > 10000 nM | CN(Cc1cc2nc(-c3cccc4c3CC(=O)N4)nc(N3CCOCC3)c2s1)c1ncc(C(=O)NO)cn1 | –
41 | > 10000 nM | COCCNc1nc(-c2cccc3[nH]ncc23)nc2cc(CN(C)c3ncc(C(=O)NO)cn3)sc12 | –
42 | 100 to 1000 nM | CN(Cc1cc2nc(-c3cc(F)c(N)c(F)c3)nc(N3CCOCC3)c2s1)c1ncc(C(=O)NO)cn1 | –
43 | < 100 nM | CNc1ccc(-c2nc(N3CCOCC3)c3sc(NS(=O)(=O)c4cccc(C=CC(=O)NO)c4)cc3n2)cn1 | –
44 | < 100 nM | CNc1ccc(-c2nc(N3CCOCC3)c3sc(CN(C)Cc4nc5cc(C=CC(=O)NO)ccc5n4C)cc3n2)cn1 | –
45 | 100 to 1000 nM | CC(C)C(=O)Nc1ccc(-c2nc(N3CCOCC3)c3sc(CN(C)c4ncc(C(=O)NO)cn4)cc3n2)cc1 | –
46 | < 100 nM | CN(Cc1cc2nc(-c3cccc(OCCO)c3)nc(N3CCOCC3)c2s1)c1ncc(C(=O)NO)cn1 | –
47 | < 100 nM | CNc1ncc(-c2nc(N3CCOCC3)c3sc(NCCCCC(=O)NO)cc3n2)cn1 | –
48 | < 100 nM | CCCc1nc2cc(C=CC(=O)NO)ccc2n1CCNCc1cc2nc(-c3ccc(NC)nc3)nc(N3CCOCC3)c2s1 | –
49 | < 100 nM | CNc1ccc(-c2nc(N3CCOCC3)c3sc(NS(=O)(=O)c4ccc(C=CC(=O)NO)cc4)cc3n2)cn1 | –
50 | > 10000 nM | Nc1ccc(-c2nc(N3CCOCC3)c3sc(CNCc4ccc(C(=O)NO)cc4)cc3n2)cc1 | –
51 | < 100 nM | Nc1ncc(-c2nc(N3CCOCC3)c3sc(NS(=O)(=O)c4cccc(/C=C/C(=O)NO)c4)cc3n2)cn1 | –
52 | 100 to 1000 nM | Nc1ccc(-c2nc(N3CCOCC3)c3sc(C(=O)NCC4CCN(c5ncc(C(=O)NO)cn5)CC4)cc3n2)cc1 | –
53 | < 100 nM | CN(Cc1cc2nc(-c3ccc4[nH]c(C(F)(F)F)nc4c3)nc(N3CCOCC3)c2s1)c1ncc(C(=O)NO)cn1 | –
54 | 100 to 1000 nM | COc1ncc(-c2nc(N3CCOCC3)c3sc(C(C)(C)N(C)c4ncc(C(=O)NO)cn4)cc3n2)cn1 | –
